In ChEMBL document CHEMBL6103652, “Niacin Ester Derivative of Brefeldin A as a Potential Dual-Target Arf1/BMX Inhibitor for Bladder Cancer” (J Nat Prod, 2025):
≈ marks a conversion by molar mass, not a printed value. Calls of active or inactive are those of the source. No cut-off for these calls is given here.

Tests used:
[1] = Toxicity in ICR mouse assessed as body weight change at 100 mg/kg, ip administered once for 14 days; type: organism-based; conditions: in vivo, 336 h, time 14 day
HT-29 = assay: Antiproliferative activity against human HT-29 cells assessed as inhibition of cell proliferation measured after 72 hrs by MTT assay; type: functional, cell-based; conditions: HT-29, 72 h
T-24 [2] = assay: Induction in apoptosis in human T24 cells assessed as necrotic cells at 0.13 uM incubated for 48 hrs by Annexin V-FITC staining based flow cytometry analysis (reference value: 1.14 %); type: functional
T-24 [3] = assay: Induction of cell cycle arrest in human T24 cells assessed as accumulation of cells at G1 phase at 0.13 uM incubated for 24 hrs by RNase A/Propidium Iodide staining based flow cytometry analysis (reference value: 43.80 %); type: functional
MB49 = assay: Antitumor immunity against mouse MB49 cells implanted in male C57BL/6 mouse assessed as increase in infiltration of CD4+ cells at 1 mg/kg,iv bid measured after 14 days immunofluorescence based analysis; type: functional, organism-based; conditions: time 14.0 day
T-24 [4] = assay: Induction in apoptosis in human T24 cells assessed as early apoptotic cells at 0.25 uM incubated for 48 hrs by Annexin V-FITC staining based flow cytometry analysis (reference value: 3.64 %); type: functional
L1210 = assay: Antiproliferative activity against mouse L1210 cells assessed as inhibition of cell proliferation measured after 72 hrs by MTT assay; type: functional, cell-based; conditions: L1210, 72 h
[5] = Downregulation of AKT expression level in human T24 cells at 0.13 to 0.50 uM incubated for 24 hrs by Western blotting analysis relative to control; type: functional, T-24; conditions: dose 0.13-0.5 µM, at 0.13 to 0.5 µM
T-24 [6] = assay: Antiproliferative activity against human T24 cells assessed as inhibition of cell proliferation measured after 72 hrs by MTT assay; type: functional, cell-based; conditions: T-24, 72 h
T-24 [7] = assay: Induction in apoptosis in human T24 cells assessed as necrotic cells at 0.25 uM incubated for 48 hrs by Annexin V-FITC staining based flow cytometry analysis (reference value: 1.14 %); type: functional
T-24 [8] = assay: Induction in apoptosis in human T24 cells assessed as necrotic cells at 0.5 uM incubated for 48 hrs by Annexin V-FITC staining based flow cytometry analysis (reference value: 1.14 %); type: functional
[9] = Downregulation of p-STAT3 expression level in human T24 cells at 0.5 uM incubated for 24 hrs by Western blotting analysis relative to control; type: functional, T-24
[10] = Toxicity in male C57BL/6 mouse allografted with mouse MB49 cells assessed as tumor cell necrosis at 1 mg/kg,iv bid measured after 14 days by H and E staining based analysis; type: organism-based; conditions: in vivo, 336 h, time 14 day
Bel-7402 = assay: Antiproliferative activity against human Bel-7402 cells assessed as inhibition of cell proliferation measured after 72 hrs by MTT assay; type: functional, cell-based; conditions: Bel-7402, 72 h
T-24 [11] = assay: Induction in apoptosis in human T24 cells assessed as late apoptotic cells at 0.25 uM incubated for 48 hrs by Annexin V-FITC staining based flow cytometry analysis (reference value: 4.78 %); type: functional
[12] = Downregulation of p-BMX expression level in human T24 cells at 0.5 uM incubated for 24 hrs by Western blotting analysis relative to control; type: functional, T-24
T-24 [13] = assay: Induction of cell cycle arrest in human T24 cells assessed as accumulation of cells at G1 phase at 0.50 uM incubated for 24 hrs by RNase A/Propidium Iodide staining based flow cytometry analysis (reference value: 43.80 %); type: functional; conditions: dose 0.5 µM
T-24 [14] = assay: Induction of cell cycle arrest in human T24 cells assessed as accumulation of cells at S phase at 0.25 uM incubated for 24 hrs by RNase A/Propidium Iodide staining based flow cytometry analysis (reference value: 31.27 %); type: functional
[15] = molecular target: T1, Cytoplasmic tyrosine-protein kinase BMX (Homo sapiens) (UniProt P51813); assay: Induction of thermal stabilization of BMX in human T24 cells pretreated for 2 hrs followed by pronase addition and measured after 25 mins by DARTS assay; type: cell-based; conditions: dose 0.2-5 mM
T1 sequence (whole entry): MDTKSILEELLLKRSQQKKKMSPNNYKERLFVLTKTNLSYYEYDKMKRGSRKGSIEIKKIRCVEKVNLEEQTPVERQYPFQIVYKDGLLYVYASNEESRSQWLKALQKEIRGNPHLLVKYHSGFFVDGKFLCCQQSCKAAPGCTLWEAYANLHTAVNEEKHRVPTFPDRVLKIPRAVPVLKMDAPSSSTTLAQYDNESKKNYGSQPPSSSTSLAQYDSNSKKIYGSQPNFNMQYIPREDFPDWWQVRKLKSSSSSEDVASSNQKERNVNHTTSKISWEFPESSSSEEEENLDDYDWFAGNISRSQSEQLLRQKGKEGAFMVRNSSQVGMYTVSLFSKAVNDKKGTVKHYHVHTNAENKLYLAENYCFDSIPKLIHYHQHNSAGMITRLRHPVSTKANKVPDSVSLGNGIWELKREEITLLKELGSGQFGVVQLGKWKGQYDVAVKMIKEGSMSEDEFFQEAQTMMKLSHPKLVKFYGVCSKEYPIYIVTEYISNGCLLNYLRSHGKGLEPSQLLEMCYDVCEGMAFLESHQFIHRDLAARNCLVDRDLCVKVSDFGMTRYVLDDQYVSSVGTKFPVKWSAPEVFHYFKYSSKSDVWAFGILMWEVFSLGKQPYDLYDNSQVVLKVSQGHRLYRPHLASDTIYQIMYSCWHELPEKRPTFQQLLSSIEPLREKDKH

[16] = Solubility of the compound in aqueous saline; type: physicochemical
HCT-116 = assay: Antiproliferative activity against human HCT-116 cells assessed as inhibition of cell proliferation measured after 72 hrs by MTT assay; type: functional, cell-based; conditions: HCT-116, 72 h
[17] = molecular target: T1, Cytoplasmic tyrosine-protein kinase BMX (Homo sapiens); assay: Induction of thermal stabilization of BMX in human T24 cells at 48 to 68 degreeC at 0.13 to 0.50 uM incubated for 6 hrs by CETSA analysis; type: cell-based; conditions: dose 0.13-0.5 µM
[18] = Solubility of the compound in Solutol HS-15; type: physicochemical
T-24 [19] = assay: Induction in apoptosis in human T24 cells assessed as viable cells at 0.13 uM incubated for 48 hrs by Annexin V-FITC staining based flow cytometry analysis (reference value: 90.44 %); type: functional; conditions: read-out: Activity
T-24 [20] = assay: Inhibition of cell migration in human T24 cells at 0.50 uM incubated for 24 hrs by scratch assay (reference value: 88 %); type: functional; conditions: T-24, 24 h
T-24 [21] = assay: Inhibition of cell migration in human T24 cells at 0.50 uM incubated for 12 hrs by scratch assay (reference value: 66 %); type: functional
T-24 [22] = assay: Induction in apoptosis in human T24 cells assessed as total apoptotic cells at 0.125 to 0.50 uM incubated for 48 hrs by Annexin V-FITC staining based flow cytometry analysis (reference value: 8 %); type: functional; conditions: dose 0.125-0.5 µM, at 0.125 to 0.5 µM
[23] = Toxicity in male C57BL/6 mouse allografted with mouse MB49 cells assessed as tumor cell apoptosis at 1 mg/kg,iv bid measured after 14 days by H and E staining based analysis; type: organism-based; conditions: in vivo, 336 h, time 14 day

IC50 (HT-29): 410 nM | IC50 (L1210): 6180 nM | IC50 (Bel-7402): 460 nM | Activity [15]: Dose-dependent-effect | solubility [16]: < 1000 µg/mL | IC50 (HCT-116): 580 nM | Activity [17]: Active | solubility [18]: 2000 µg/mL (≈ 5.19 mM)
SMILES: C[C@H]1CCC/C=C/[C@@H]2C[C@H](O)C[C@H]2[C@H](OC(=O)c2cccnc2)/C=C/C(=O)O1
Activity [1]: Non-toxic | Activity (T-24 [2]): 0.91% | Activity (T-24 [3]): 47.36% | Activity (MB49): Active | Activity (T-24 [4]): 6.75% | Activity [5]: 62% | IC50 (T-24 [6]): 220 nM | Activity (T-24 [7]): 3.33% | Activity (T-24 [8]): 3.49% | Activity [9]: 55% | Activity [10]: Non-toxic | Activity (T-24 [11]): 23.01% | Activity [12]: 35% | Activity (T-24 [13]): 63.82% | Activity (T-24 [14]): 29.56% | viability at 0.13 µM (T-24 [19]): 89.2% | wound closure at 0.5 µM (T-24 [20]): 17% | wound closure at 0.5 µM (T-24 [21]): 13% | Activity (T-24 [22]): 31% | Activity [23]: Non-toxic
